Experimental findings from ChEMBL document CHEMBL1158331, “Insect Antifeedant Isoryanodane Diterpenes from Persea indica” (1997) are described below.

Experiment [1] concerns Spodoptera litura. Briefly: Antifeedant activity against Spodoptera litura third instar larvae by choice leaf disk assay. The arrangement: unit not given here. It counts as functional.
In experiment [2] the test system is Spodoptera litura. Briefly: Antifeedant activity against Spodoptera litura third instar larvae assessed as feeding index at 1000 ppm by choice leaf disk assay. The class given is functional.

In experiment [1], `C/C=C(\C)C(=O)O[C@H]1C[C@@H](OC(C)=O)[C@@]2(C(=O)OC)CO[C@H]3[C@@H](O)[C@@](C)([C@]45O[C@@]4(C)[C@@H]4C[C@H]5O[C@@H]5OC=C[C@@]54O)[C@H]4[C@]1(CO[C@]4(O)C(=O)OC)[C@@H]32` [AZADIRACHTIN A] yielded a logEC50 of 0.25.
For `CC(C)[C@@]1(O)C[C@@]2(O)[C@@]3(C)C[C@]4(O)O[C@@]5([C@H](O)[C@@H](C)CC[C@]35O)[C@@]2(O)[C@@]41C` [CINNZEYLANOL], the logEC50 in experiment [1] amounted to 1.93.
Consider `CC(C)[C@@H]1C[C@@H]2[C@@]3(O)[C@@H]4O[C@@](O)(C[C@]2(C)[C@]2(O)CC[C@H](C)[C@H]42)[C@]13C` [INDICOL], for which the Activity in experiment [2] was 49.39. In experiment [1], this molecule came in with a logEC50 of over 3.
On the same counts, the results for `CC(C)[C@@]1(O)C[C@@]2(O)[C@]3(C)C[C@]4(O)O[C@H]([C@@]5(O)[C@@H](C)CC[C@]53O)[C@@]2(O)[C@]41C` [PERSEANOL] are 11.43 and 2.23.
Take `CC(C)[C@@]1(O)[C@@H](OC(=O)c2cc[nH]c2)[C@@]2(O)[C@]3(C)C[C@@]4(O)O[C@@]5([C@H](O)[C@@H](C)CC[C@]35O)[C@@]2(O)[C@@]41C` [RYANODINE]: the logEC50 in experiment [1] is on record as 1.15.
The same measure, in the same setting: with `CC(C)[C@@]1(O)[C@@H](O)[C@@]2(O)[C@@]3(C)C[C@]4(O)O[C@@]5([C@H](O)[C@@H](C)CC[C@]35O)[C@@]2(O)[C@]14C` [RYANODOL] the figure was 2.18.
Consider `CC(C)[C@@]1(O)C[C@@]2(O)[C@]3(C)C[C@]4(O)O[C@H]([C@H]5[C@@H](C)CC[C@]53O)[C@@]2(O)[C@]41C` [VIGNATICOL], for which, in experiment [2], the Activity stood at 12.57. In experiment [1], this molecule had a logEC50 of 1.97.
